Where no end group is shown, it is not given here.
Legend:
rats = experiment: Barnes circular platform test; type: in vivo, rat; conditions: 50 nmol intracerebroventricular; memory test trial (day 8) vs last trial of training (day −1); P<0.01
Protocol: All rats were anesthetized using 40 mg/kg of pentobarbital (Somnotol; MTC Pharmaceuticals, Cambridge, Ontario) intraperitoneally. Body temperature was maintained at 37° C. Aβ(25-35) (50 nmol in 10 μL of saline) was injected bilaterally into the lateral ventricles. Aβ(25-35) was prepared according to established methods (Sigurdsson, et al. (1997) supra). […] (1997) supra). […] After wound suture, all rats received […] of buprenorphine intramuscularly and were allowed to recover from surgery for 7 days. Learning and memory deficits were assessed using the Barnes circular platform. There are twenty holes evenly located along the border of circular platform with a hidden escape box beneath one of the holes. The circular platform is equipped with colored cues on the surrounding wall. A bright light combined with wind from a fan hung on the ceiling above the platform provides the incentive for the rats to find the hidden box and enter the escape hole. During each trial, the rats were initially placed in the center of the platform under an inverted box, then the box was lifted up and the rat is allowed to find the hole for up to 4 minutes. The latency (time to enter the escape hole) was recorded during the trial. There was a training period (trials 1-14) performed at day −7 to day −1 before surgery (day 0). PDTC or vehicle treatment was given 30 minutes before Aβ(25-35) injections and from days 1 to 7 post-surgery. Spatial memory was then tested on day 8 (trial 15) with the escape hole placed in the same location. Spatial learning was examined by re-testing (re-acquisition) from days 9 to 15 (trials 16-29) with the escape box relocated at […] from the original location. Digital photographs were taken using a light microscope (Leitz Diaplan). […] Also, relative optical density measurements and numbers of stained cells or accumulations were measured in entire brain areas for quantitative analysis and statistically analyzed with ANOVA and Tukey post hoc test with a significance level of P<0.05. […] The staircase data are expressed as the mean±SEM. […] Data are expressed as mean±SEM. […]

Male Wistar rats [1] = experiment: Congo Red histochemistry of rat brain sections; type: in vivo; conditions: Aβ: lesions in fornix, anterior hippocampus, CA1 hippocampus; endothelin: infarct
Protocol: (§1) Male Wistar rats (250 to 300 grams; Charles River, Montreal, Quebec) were divided into 4 groups: intracerebroventricular injections of Aβ(25-35) (BACHEM, Torrance, Calif.); endothelin injections into the right striatum; both Aβ(25-35) and striatal endothelin injections; and sham procedures. The Aβ(25-35) fragment was used to reduce the possibility of rapid coagulation and to allow diffusion of the peptide into the brain.
All rats were anesthetized using 40 mg/kg of pentobarbital (Somnotol; MTC Pharmaceuticals, Cambridge, Ontario) intraperitoneally. Body temperature was maintained at 37° C. Aβ(25-35) (50 nmol in 10 μL of saline) was injected bilaterally into the lateral ventricles. Aβ(25-35) was prepared according to established methods (Sigurdsson, et al. (1997) supra). Aβ(25-35) (50 nmol in 10 μL of saline at a rate of 1 μL/minute) was injected bilaterally into the lateral ventricles via a stainless-steel cannula (23-gauge; anterior/posterior −0.8, medial/lateral ±1.4, and dorsal/ventral −4.0 below dura). Two endothelin injections (6 pmol in 3 μL of saline), 1 mm apart, were made into the right striatum (Sigurdsson, et al. (1997) supra). Sham procedures involved all the surgical steps without injections of Aβ(25-35) or endothelin. After wound suture, all rats received […] of buprenorphine intramuscularly and were allowed to recover from surgery for 7 days. […]

Male Wistar rats [2] = experiment: Montoya staircase test; type: in vivo, rat
Protocol: as §1
All rats were anesthetized using 40 mg/kg of pentobarbital (Somnotol; MTC Pharmaceuticals, Cambridge, Ontario) intraperitoneally. Body temperature was maintained at 37° C. Aβ(25-35) (50 nmol in 10 μL of saline) was injected bilaterally into the lateral ventricles. Aβ(25-35) was prepared according to established methods (Sigurdsson, et al. (1997) supra). Aβ(25-35) (50 nmol in 10 μL of saline at a rate of 1 μL/minute) was injected bilaterally into the lateral ventricles via a stainless-steel cannula (23-gauge; anterior/posterior −0.8, medial/lateral ±1.4, and dorsal/ventral −4.0 below dura). Two endothelin injections (6 pmol in 3 μL of saline), 1 mm apart, were made into the right striatum (Sigurdsson, et al. (1997) supra). Sham procedures involved all the surgical steps without injections of Aβ(25-35) or endothelin. After wound suture, all rats received […] of buprenorphine intramuscularly and were allowed to recover from surgery for 7 days.
For training (n=10 for each group), rats were placed into the Montoya staircase apparatus (Montoya, et al. (1991) supra) at the same time every day for 8 days (days −8 through −1) and were allowed to perform the test for 20 minutes. Rats were food-deprived for 1 day (day −9) before testing, as well as on day −8. On days −7 though −1, rats were fed 10 grams of their normal chow so that they maintained their body weight at ˜85%. Three NOYES LAB ANIMAL PRECISION FOOD PELLETS™ (Research Diets, Inc., New Brunswick, N.J.) were placed in each of the 14 wells (7 on each side). Pellets eaten were recorded from each well. Re-testing trials, which were performed 7 days after the surgical procedures (day 0), were performed for 8 days in the same way as the training trials (days 8 through 15).
Digital photographs were taken using a light microscope (Leitz Diaplan). An investigator was blinded to the identification of the rat sections while analysis was being performed. […] Also, relative optical density measurements and numbers of stained cells or accumulations were measured in entire brain areas for quantitative analysis and statistically analyzed with ANOVA and Tukey post hoc test with a significance level of P<0.05. […] The staircase data are expressed as the mean±SEM. […] Data are expressed as mean±SEM. […]

GSNKGAIIGLM [Aβ, β-amyloid fragment (25-35), 50 nmol injected bilaterally into the lateral ventricles of rats]
latency (time to enter the escape hole) (rats): increased latency | Congo Red staining (Male Wistar rats [1]): stained amyloid positive with Congo Red | Staircase test performance, ipsilateral paw (Male Wistar rats [2]; day 8 (first day of re-testing), mean±SEM): 73±8 % of pretreatment | total number of pellets eaten (Male Wistar rats [2]; day 8 compared with the last day of training, disappeared by day 9): significant deficit

— US20060282906A1, “Non-transgenic rodent model of Alzheimer's disease” (priority 2005, published 2006)
